From US20190358176A1, “METHODS OF SENSITIZING CANCER CELLS TO IMMUNE CELL KILLING” (University of Pittsburgh - of the Commonwealth System of …, priority 2017, published 2019)
Like-named read-outs stand apart in the source and are kept apart here.

Columns and labels:
zebrafish embryos = conditions: prior SAR study (12); cited from earlier work
MDA-MB-231 cells [1] = test: HCA of apoptosis and ERK phosphorylation (multiparametric: nuclear condensation, caspase-3 cleavage, ERK phosphorylation); assay type: cell-based, human; conditions: for IC50: Homo sapiens, 24 hours
Protocol: MDA-MB-231 cells (10,000/well) were treated with identical concentration gradients of test agents on the right and left half of a 384 well microplate for later assessment of potential compound autofluorescence. After 24 hours, cells were fixed, permeabilized with 0.2% Triton X-100, blocked with 1% BSA/PBS, and immunostained with anti-phospho-ERK (E10, CST cat#9106L)/AlexaFluor488 and anti-cleaved caspase-3 (CST cat#9664L)/AlexaFluor594 primary/secondary antibody pairs. Plates were imaged on the ArrayScan II using a 10×0.5NA objective. Each well was background corrected by subtracting mean phospho-ERK and cleaved caspase-3 intensities from wells that had received secondary antibody only. Data in Table 1 are the averages of the indicated numbers of independent experiments, each performed in quadruplicate. IC50, standard error, and 95% confidence intervals were calculated by […] in GraphPad Prism.
Multiple data points were analyzed in GraphPad Prism by one-way ANOVA using Dunnett's multiple comparison test. EC50/IC50 values were obtained from at least three independent experiments by non-linear regression using a four parameter logistic equation. IC50, standard error, and 95% confidence intervals were calculated in GraphPad.

MDA-MB-231 cells [2] = test: HCA of cell motility and cytotoxicity (Oris Pro 384 cell migration plate); assay type: cell-based, human; conditions: 48 hours, at antimigratory concentrations
Protocol: HCA of cell motility and cytotoxicity was performed essentially as described (51). MDA-MB-231 cells (15,000/well) were plated in collagen-coated Oris™ Pro 384-well microplates (Platypus Technologies cat # PRO384CMACCS) containing a chemical exclusion zone that dissolves upon cell seeding. Two hours after plating, medium was removed, and cells treated with ten-point, two-fold concentration gradients of test agents. Forty-eight hours after treatment, cells were stained with 10 μg/ml Hoechst 33342 and 1 μg/ml PI in HBSS for 15 min at 37° C. Plates were washed once with PBS and scanned live on the ArrayScan II using a 5× objective. To capture cells that had entered into the exclusion zone, a single field was acquired in the center of the well and nuclei therein enumerated. To assess changes in cell loss, nuclear size, and necrotic cell death, a second scan was performed that captured one field at the edge of the well (51). Parameters exported and plotted were SelectedObjectCountPerValidField (cell density), MEAN ObjectAreaCh1 (nucleus size), and % RESPONDER MeanAvgIntenCh2 (percent PI positive cells based on based on a threshold set with vehicle treated cells).

MDA-MB-231 cells [3] = test: BCI-215 toxicity in the presence of doxorubicin; assay type: cell-based, human; conditions: doxorubicin 5 μM pre-treated 2-3 hours
Protocol: FIG. 9. Reduced toxicity of BCI-215 in the presence of doxorubicin. MDA-MB-231 carrying the mitochondrial-targeted, GFP-labeled cytochrome C biosensor were treated for 2-3 hours with vehicle (DMSO) or doxorubicin (5 μM) before being exposed to concentration gradients of BCI-215 for 20 h. Plates were scanned live on an ImageXpress high content reader at 20× magnification and GFP positive cells enumerated. Cell densities were normalized to vehicle or doxorubicin alone, respectively. Data are the averages ±SD from three independent experiments, each performed in quadruplicate.

In the case of `O=C1/C(=C/c2ccccc2)C(NC2CCCCC2)c2cc(Br)ccc21` (stereo not shown) [BCI-215], the “toxicity to zebrafish embryos” value (zebrafish embryos) is listed as “non-toxic”, the nuclear morphology (MDA-MB-231 cells [1]; BCI and BCI-215 at 22 μM) is listed as “shrunken, condensed nuclei that resembled pyknosis” and the IC50 (MDA-MB-231 cells [1]; induction of phospho-ERK, read-out: IC50 ERK phosphorylation) is listed as 15.4 µM. For the same molecule, the IC50 (MDA-MB-231 cells [1]; read-out: IC50 Caspase-3 cleavage) was 7.33 µM, the IC50 (MDA-MB-231 cells [1]; read-out: IC50 Nuclear condensation) was 12.8 µM and the “necrosis (% PI positive cells)” value (MDA-MB-231 cells [2]) was “no signs of necrosis”. The “toxicity of BCI-215 after doxorubicin pre-treatment (cell numbers)” value (MDA-MB-231 cells [3]) was “reduced the toxicity of BCI-215”.
